Reference: patent publication US8080546B2, “Pyrazolo-pyridinone derivatives and methods of use” (Amgen Inc., priority 2007, dated 2011)
pIC50: −log10 of the molar value.

Legend:
p38 = p38 (Homo sapiens, UniProt Q16539); experiment: p38 in-vitro HTRF enzyme assay; type: biochemical; conditions: recombinant human enzyme; range symbols; read-out: p38 enyme HTRF assay IC50
Procedure: p38 In-Vitro HTRF Enzyme Assay
The compounds of the invention can be tested for their respective affinities for the p38 protein using a conventional p38 in-vitro enzyme activity assay. For example, a P38-alpha HTRF assay may be used to measure the protein's in-vitro phosphorylation activity, and the data analyzed using time resolved fluorimetry techniques (FRET). A p38 HTRF assay is as follows. The kinase reaction buffer for p38α, p38β, p38δ and p38γ HTRF assays consists of 50 mM Tris-pH 7.5, 5 mM MgCl2, 0.1 mg/mL BSA, 100 μM Na3VO4 and 0.5 mM DTT. The HTRF detection buffer contains 100 mM HEPES-pH 7.5, 100 mM NaCl, 0.1% BSA, 0.05% Tween-20, and 10 mM EDTA. Each compound was dissolved in 100% DMSO and serially diluted (3 fold, 10 point) in a polypropylene 96-well microtiter plate (drug plate). The final starting concentration of the compound in the p38α and p38β enzymatic assays was about 1 μM. The final starting concentration of each compound in the p38δ and p38γ enzymatic assays was about 10 μM. The p38α, p38β, p38δ and p38γ kinase reactions were carried out in a polypropylene 96-well black round bottom assay plate in total volume of 30 μL kinase reaction buffer. Appropriate concentration of purified and activated enzyme (recombinant human) was mixed with indicated concentration of ATP and 100 nM GST-ATF2-Avitag, in the presence or absence (HI control) of each compound. In the absence of enzyme, the background was measured as LO control. HI controls and LO controls contained only DMSO. The reaction was allowed to incubate for 1 hour at RT. […] After 60 minutes incubation at room temperature, the assay plate was read in a Discovery Plate Reader. […] The resulting data was analyzed by taking the proportion of substrate phosphorylated in the kinase reaction in the presence of each individual compound and comparing it with that phosphorylated in the presence of DMSO vehicle alone (HI control). The data was calculated using the formula: % control (POC)=(compound−average LO)/(average HI−average LO)*100. […] All results were expressed as the mean±the standard error of the mean. Data acquisition and non-linear regression algorithms were performed using Activity Base v5.2 and XLfit software v4.1 respectively. Additional assay information may be obtained in Park Y W, Cummings R T, Wu L, et al. Homogeneous Proximity Tyrosine Kinase Assays Scintillation Proximity Assay versus Homogeneous Time-Resolved Fluorescence. Analytical Biochemistry.

IL-1 = experiment: LPS induced IL-1 cell based assay (LPS-activated monocytes); conditions: Homo sapiens, Monocyte
Procedure: Lipopolysaccharide-Activated Monocyte TNF Production Assay
Test compounds were evaluated in vitro for the ability to inhibit the production of TNF by monocytes activated with bacterial lipopolysaccharide (LPS). Fresh residual source leukocytes (a byproduct of plateletpheresis) were obtained from a local blood bank, and peripheral blood mononuclear cells (PBMCs) were isolated by density gradient centrifugation on Ficol-Paque Plus (Pharmacia). PBMCs were suspended at 2×10^6/mL in DMEM supplemented to contain 2% FCS, 10 mM, 0.3 mg/mL […], 100 U/mL penicillin G and […] streptomycin sulfate (complete media). Cells were plated into Falcon flat bottom, 96 well culture plates (200 μL/well) and cultured overnight at 37° C. and 6% CO2. Non-adherent cells were removed by washing with 200 μl/well of fresh medium. Wells containing adherent cells (˜70% monocytes) were replenished with 100 μL of fresh medium.
Preparation of Test Compound Stock Solutions
Test compounds were dissolved in […]. Compound stock solutions were prepared to an initial concentration of […]. Stocks were diluted initially to 20-200 μM in complete media. Nine two-fold serial dilutions of each compound were then prepared in complete medium.
Treatment of Cells with Test Compounds and Activation of TNF Production with Lipopolysaccharide
One hundred microliters of each test compound dilution were added to microtiter wells containing adherent monocytes and 100 μL complete medium. Monocytes were cultured with test compounds for 60 min at which time 25 μL of complete medium containing 30 ng/mL lipopolysaccharide from E. coli K532 were added to each well. Cells were cultured an additional 4 hrs. Culture supernatants were then removed and TNF presence in the supernatants was quantified using an ELISA. […]
Standard curve data were fit to a second order polynomial and unknown TNF-α concentrations determined from their OD by solving this equation for concentration. TNF concentrations were then plotted vs. test compound concentration using a second order polynomial. This equation was then used to calculate the concentration of test compounds causing a 50% reduction in TNF production.
Compounds of the invention can also be shown to inhibit LPS-induced release of IL-1β, IL-6 and/or IL-8 from monocytes by measuring concentrations of IL-1β, IL-6 and/or IL-8 by methods well known to those skilled in the art. […] Thus, the compounds of the invention may lower elevated levels of TNF-α, IL-1, IL-6, and IL-8 levels. Reducing elevated levels of these inflammatory cytokines to basal levels or below is favorable in controlling, slowing progression, and alleviating many disease states.

THP1 cells = experiment: Lipopolysaccharide-activated THP1 cell TNF production assay (THP1 cell based); conditions: Homo sapiens, THP-1, LPS-induced TNF-α
Procedure: Lipopolysaccharide-Activated THP1 Cell TNF Production Assay
THP1 cells are resuspended in fresh THP1 media (RPMI 1640, 10% heat-inactivated FBS, 1XPGS, 1XNEAA, plus 30 μM PME) at a concentration of 1E6/mL. One hundred microliters of cells per well are plated in a polystyrene 96-well tissue culture. One microgram per mL of bacterial LPS is prepared in THP1 media and is transferred to the wells. Test compounds are dissolved in 100% DMSO and are serially diluted 3-fold in a polypropylene 96-well microtiter plate (drug plate). HI control and LO control wells contain only DMSO. One microliter of test compound from the drug plate followed by 10 μL of LPS are transferred to the cell plate. The treated cells are induced to synthesize and secrete TNF-α at 37° C. for 3 h. Forty microliters of conditioned media are transferred to a 96-well polypropylene plate containing 110 μL of ECL buffer (50 mM Tris-HCl pH 8.0, 100 mM NaCl, 0.05% Tween 20, 0.05% NaN3 and 1% FBS) supplemented with 0.44 nM MAB610 monoclonal Ab (R&D Systems), 0.34 nM ruthenylated AF210NA polyclonal Ab (R&D Systems) and 44 μg/mL sheep anti-mouse M280 Dynabeads (Dynal). After a 2 h incubation at room temperature with shaking, the reaction is read on the ECL M8 Instrument (IGEN Inc.). A low voltage is applied to the ruthenylated TNF-α immune complexes, which in the presence of TPA (the active component in Origlo), results in a cyclical redox reaction generating light at […]. The amount of secreted TNF-α in the presence of compound compared with that in the presence of DMSO vehicle alone (HI control) is calculated using the formula: % control (POC)=(cpd−average LO)/(average HI−average LO)*100. Data (consisting of POC and inhibitor concentration in μM) is fitted to a 4-parameter equation (y=A+((B−A)/(1+((x/C)^D))), where A is the minimum y (POC) value, B is the maximum y (POC), C is the x (cpd concentration) at the point of inflection and D is the slope factor) using a Levenburg-Marquardt non-linear regression algorithm.

p38, sequence (Q16539 whole entry): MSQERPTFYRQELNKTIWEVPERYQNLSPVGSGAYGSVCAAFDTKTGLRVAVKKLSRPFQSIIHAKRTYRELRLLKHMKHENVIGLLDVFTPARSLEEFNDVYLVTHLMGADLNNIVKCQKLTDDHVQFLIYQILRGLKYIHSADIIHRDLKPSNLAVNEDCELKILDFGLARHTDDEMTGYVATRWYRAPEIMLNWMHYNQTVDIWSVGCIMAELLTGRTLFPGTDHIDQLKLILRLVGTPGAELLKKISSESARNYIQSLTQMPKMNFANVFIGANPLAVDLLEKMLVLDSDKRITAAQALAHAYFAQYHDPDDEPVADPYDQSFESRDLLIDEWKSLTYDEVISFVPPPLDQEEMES

pIC50 (p38) | pIC50 (IL-1; range symbols) | pIC50 (THP1 cells; range symbols) | pIC50 (IL-1; actual values) | pIC50 (THP1 cells; actual values) | Compound
> 7.60 | > 7.60 | > 7.60 |  |  | Cc1ccc(C(=O)NC2CC2)cc1Nc1cc(=O)n(C)c2c1cnn2-c1cccc(F)c1 [Example 4, N-cyclopropyl-3-((1-(3-fluorophenyl)-7-methyl-6-oxo-6,7-dihydro-1H-pyrazolo[3,4-b]pyridin-4-yl)amino)-4-methylbenzamide]
> 7.60 | 7.00 to 7.60 | > 7.60 |  |  | Cc1ccc(C(=O)NC2CC2)cc1Oc1cc(=O)n(C)c2c1cnn2-c1ccc(F)cc1F [Example 19, N-cyclopropyl-3-((1-(2,4-difluorophenyl)-7-methyl-6-oxo-6,7-dihydro-1H-pyrazolo[3,4-b]pyridin-4-yl)oxy)-4-methylbenzamide]
5.30 to 6.00 | 5.30 to 6.00 | 6.00 to 6.60 |  |  | Cn1c(=O)cc(Nc2ccc(F)cc2F)c2cnn(-c3ccc(F)cc3F)c21 [Example 9, 1-(2,4-difluorophenyl)-4-((2,4-difluorophenyl)amino)-7-methyl-1,7-dihydro-6H-pyrazolo[3,4-b]pyridin-6-one]
> 7.60 | 7.00 to 7.60 | > 7.60 |  |  | CCn1c(=O)cc(Oc2cc(C(=O)NC3CC3)ccc2C)c2cnn(-c3ccc(F)cc3)c21 [Example 24, N-cyclopropyl-3-((7-ethyl-1-(4-fluorophenyl)-6-oxo-6,7-dihydro-1H-pyrazolo[3,4-b]pyridin-4-yl)oxy)-4-methylbenzamide]
> 7.60 | 6.60 to 7.00 | > 7.60 |  |  | Cc1ccc(C(=O)NC2CC2)cc1Oc1cc(=O)n(C)c2c1cnn2-c1cc(F)ccc1F [Example 22, N-cyclopropyl-3-((1-(2,5-difluorophenyl)-7-methyl-6-oxo-6,7-dihydro-1H-pyrazolo[3,4-b]pyridin-4-yl)oxy)-4-methylbenzamide]
> 7.60 | > 7.60 | > 7.60 |  |  | Cc1ccc(C(N)=O)cc1Nc1cc(=O)n(C)c2c1cnn2-c1ccc(F)cc1F [Example 18, 3-((1-(2,4-difluorophenyl)-7-methyl-6-oxo-6,7-dihydro-1H-pyrazolo[3,4-b]pyridin-4-yl)amino)-4-methylbenzamide]
 | 6.60 to 7.00 | 7.00 to 7.60 |  |  | Cc1ccc(C(=O)NC(C)(C)C)cc1Nc1cc(=O)n(C)c2c1cnn2-c1ccc(F)cc1F [Example 25, N-tert-butyl-3-((1-(2,4-difluorophenyl)-7-methyl-6-oxo-6,7-dihydro-1H-pyrazolo[3,4-b]pyridin-4-yl)amino)-4-methylbenzamide]
5.30 to 6.00 | 6.00 to 6.60 | 6.60 to 7.00 |  |  | Cc1ccncc1Nc1cc(=O)n(C)c2c1cnn2-c1cc(F)ccc1F [Example 8, 1-(2,5-difluorophenyl)-7-methyl-4-((4-methyl-3-pyridinyl)amino)-1,7-dihydro-6H-pyrazolo[3,4-b]pyridin-6-one]
> 7.60 | 7.00 to 7.60 | > 7.60 |  |  | Cc1ccc(C(N)=O)cc1Nc1cc(=O)n(C)c2c1cnn2-c1cc(F)ccc1F [Example 21, 3-((1-(2,5-difluorophenyl)-7-methyl-6-oxo-6,7-dihydro-1H-pyrazolo[3,4-b]pyridin-4-yl)amino)-4-methylbenzamide]
> 7.60 | > 7.60 | > 7.60 |  |  | Cn1c(=O)cc(Nc2cc(C(=O)NC3CC3)ccc2Cl)c2cnn(-c3cc(F)ccc3F)c21 [Example 12, 4-chloro-N-cyclopropyl-3-((1-(2,5-difluorophenyl)-7-methyl-6-oxo-6,7-dihydro-1H-pyrazolo[3,4-b]pyridin-4-yl)amino)benzamide]
> 7.60 | 7.00 to 7.60 | > 7.60 |  |  | Cn1c(=O)cc(Nc2cc(C(=O)NC3CC3)ccc2F)c2cnn(-c3ccc(F)cc3F)c21 [Example 7, N-cyclopropyl-3-((1-(2,4-difluorophenyl)-7-methyl-6-oxo-6,7-dihydro-1H-pyrazolo[3,4-b]pyridin-4-yl)amino)-4-fluorobenzamide]
 | > 7.60 | > 7.60 |  |  | Cn1c(=O)cc(Nc2cc(C(=O)NC3CC3)ccc2Cl)c2cnn(-c3ccc(F)cc3F)c21 [Example 13, 4-chloro-N-cyclopropyl-3-((1-(2,4-difluorophenyl)-7-methyl-6-oxo-6,7-dihydro-1H-pyrazolo[3,4-b]pyridin-4-yl)amino)benzamide]
 |  |  | 7.00 | 8.09 | Cn1c(=O)cc(Oc2cc(C(=O)NC3CC3)ccc2Cl)c2cnn(-c3cc(F)ccc3F)c21 [Example 26, 4-chloro-N-cyclopropyl-3-((1-(2,5-difluorophenyl)-7-methyl-6-oxo-6,7-dihydro-1H-pyrazolo[3,4-b]pyridin-4-yl)oxy)benzamide]
 | > 7.60 | > 7.60 |  |  | Cc1ccc(C(=O)NC2CC2)cc1Nc1cc(=O)n(C)c2c1cnn2-c1ccc(F)cc1F [Example 14, N-cyclopropyl-3-((1-(2,4-difluorophenyl)-7-methyl-6-oxo-6,7-dihydro-1H-pyrazolo[3,4-b]pyridin-4-yl)amino)-4-methylbenzamide]
